Consider 1 compound from PMC4007695 (Cell reports, 2013).

The target of assay [1] is as-TOR2 (TOR2 kinase, analog-sensitive allele) (Saccharomyces cerevisiae, UniProt P32600, L2178A). The assay can be described thus: in vitro kinase assay of purified TORC2 at […] ATP. The format is biochemical.
For a further assay, the target named is wt-TOR2 (TOR2 kinase) (Saccharomyces cerevisiae, UniProt P32600). The assay is described as follows: in vitro kinase assay of purified TORC2 at […] ATP. The assay is classed as biochemical.

`Cn1c(=O)n(-c2ccc(C(C)(C)C#N)cc2)c2c3cc(-c4cnc5ccccc5c4)ccc3ncc21` [BEZ235]: the results for the IC50 (in assay [1]; against wt-TOR2 (TOR2 kinase)) were 50 nM and 111 nM, respectively.
